Laboratory results published in US8318725B2, “Aryl indolyl sulfonamide compounds and their use as 5-HT6 ligands” (Suven Life Sciences Limited, priority 2008, dated 2012).
Counter-ions that a name gives are not always drawn.

Key:
Human 5-HT6 receptor = target: T1, Human 5-HT6 receptor (Homo sapiens, UniProt P50406); experiment: Binding assay for human 5-HT6 receptor ([3H] LSD radioligand); conditions: [3H] LSD 1.5 nM, human recombinant receptor in HEK293 cells; for inhibition at 0.1 µM: read-out: % Inhibition of specific binding at 100 nM
T1 construct: expressed in transfected cells; host or cells: HEK293
Protocol: Binding Assay for Human 5-HT6 Receptor
Compounds can be tested according to the following the procedures. Materials and Methods:
Receptor source: Human recombinant expressed in HEK293 cells
Radioligand: [^3H] LSD (60-80 Ci/mmol)
Final ligand concentration—[1.5 nM]
Non-specific determinant: Methiothepin mesylate—[0.1 μM]
Reference compound: Methiothepin mesylate
Positive control: Methiothepin mesylate
Reactions were carried out in […] TRIS-HCl (pH 7.4) containing 10 μM MgCl2, 0.5 mM EDTA for 60 minutes at 37° C. The reaction was terminated by rapid vacuum filtration onto glass fiber filters. Radioactivity trapped onto the filters was determined and compared to control values in order to ascertain any interactions of test compound(s) with the cloned serotonin 5-HT6binding site.
Literature Reference: Monsma F. J. Jr., et al., Molecular Cloning and Expression of Novel Serotonin Receptor with High Affinity for Tricyclic Psychotropic Drugs. Mol. Pharmacol. (43): 320-327 (1993).

T1 sequence (P50406 whole entry): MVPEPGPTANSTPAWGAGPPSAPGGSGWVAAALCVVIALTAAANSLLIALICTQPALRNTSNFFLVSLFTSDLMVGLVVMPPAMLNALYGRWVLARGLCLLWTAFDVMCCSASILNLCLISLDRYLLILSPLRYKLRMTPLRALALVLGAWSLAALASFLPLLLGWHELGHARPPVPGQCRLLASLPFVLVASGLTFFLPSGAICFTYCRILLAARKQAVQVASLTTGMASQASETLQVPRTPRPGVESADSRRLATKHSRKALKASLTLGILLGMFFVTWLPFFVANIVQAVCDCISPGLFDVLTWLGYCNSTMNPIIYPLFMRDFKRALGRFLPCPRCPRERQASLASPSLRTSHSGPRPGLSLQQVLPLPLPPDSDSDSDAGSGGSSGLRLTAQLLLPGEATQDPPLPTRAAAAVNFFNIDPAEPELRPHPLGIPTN

Row | melting point [°C] | inhibition at 0.1 µM (Human 5-HT6 receptor; 100 nM test compound) [%] | Ki (Human 5-HT6 receptor) [nM] | Structure (SMILES) | % Inhibition of specific binding at 100 nM (Human 5-HT6 receptor; 100 nM test compound) [%]
1 | 214.7 to 215.6 | – | – | CN1CCN(Cc2cc(S(=O)(=O)n3ccc4cc(Br)ccc43)ccc2Cl)CC1.Cl.Cl | –
2 | 219.4 to 221.6 | – | – | CN1CCN(Cc2cc(S(=O)(=O)n3ccc4cc(F)ccc43)ccc2Br)CC1.Cl.Cl | –
3 | 214.3 to 215.7 | – | – | COc1ccc2c(c1)c(C)cn2S(=O)(=O)c1ccc(Br)c(CN2CCN(C)CC2)c1.Cl.Cl | –
4 | 211.3 to 212.1 | – | – | CCN1CCN(Cc2cc(S(=O)(=O)n3cc(C)c4cc(OC)ccc43)ccc2Br)CC1.Cl.Cl | –
5 | 213.3 to 214.2 | – | – | COc1ccc2c(c1)c(C)cn2S(=O)(=O)c1ccc(Cl)c(CN2CCN(C)CC2)c1.Cl.Cl | –
6 | 195.4 to 199.3 | – | – | COc1ccc2c(c1)c(Br)cn2S(=O)(=O)c1ccc(Cl)c(CN2CCN(C)CC2)c1.Cl.Cl | –
7 | 216.9 to 219.7 | – | – | CCN1CCN(Cc2cc(S(=O)(=O)n3cc(Br)c4cc(OC)ccc43)ccc2Cl)CC1.Cl.Cl | –
8 | 218.9 to 220.5 | – | – | CCN1CCN(Cc2cc(S(=O)(=O)n3cc(C)c4ccccc43)ccc2Cl)CC1.Cl.Cl | –
9 | 208.2 to 209.2 | – | – | CN1CCN(Cc2cc(S(=O)(=O)n3ccc4cc(Br)ccc43)ccc2Br)CC1.Cl.Cl | –
10 | 226.99 | – | – | CCN1CCN(Cc2cc(S(=O)(=O)n3cc(C)c4cc(OC)ccc43)ccc2C)CC1.Cl.Cl | –
11 | 190.32 | – | – | COc1ccc2c(c1)c(C)cn2S(=O)(=O)c1ccc(C)c(CN2CCN(C)CC2)c1.Cl.Cl | –
12 | 160.94 | – | – | CCN1CCN(Cc2cc(S(=O)(=O)n3ccc4cc(OC)ccc43)ccc2C)CC1.Cl.Cl | –
13 | – | – | – | CCN1CCN(Cc2cc(S(=O)(=O)n3ccc4ccccc43)ccc2Br)CC1 [Example 1, 1-1-[4-Bromo-3-(4-ethylpiperazin-1-ylmethyl)benzenesulfonyl]-1H-indole] | 78.91
14 | 115.2 to 120 | – | – | COc1ccc2c(ccn2S(=O)(=O)c2ccc(Br)c(CN3CCN(C)CC3)c2)c1 [Example 2, 1-[4-Bromo-3-(4-methylpiperazin-1-ylmethyl)benzenesulfonyl]-5-methoxy-1H-indole] | –
15 | 196.1 to 198.6 | 50.5 | – | CCN1CCN(Cc2cc(S(=O)(=O)n3ccc4cc(OC)ccc43)ccc2Br)CC1 [Example 3, 1-[4-Bromo-3-(4-ethylpiperazin-1-ylmethyl)benzenesulfonyl]-5-methoxy-1H-indole] | –
16 | 92.2 to 93.9 | 62.5 | – | CCN1CCN(Cc2cc(S(=O)(=O)n3ccc4cc(F)ccc43)ccc2Br)CC1 [Example 4, 1-[4-Bromo-3-(4-ethylpiperazin-1-ylmethyl)benzenesulfonyl]-5-fluoro-1H-indole] | –
17 | 161.3 to 162.6 | – | – | CN1CCN(Cc2cc(S(=O)(=O)n3cc(Br)c4cc(F)ccc43)ccc2Cl)CC1 [Example 5, 1-[4-Chloro-3-(4-methylpiperazin-1-ylmethyl)benzenesulfonyl]-5-fluoro-3-bromo-1H-indole] | –
18 | – | 67.6 | – | COc1ccc2c(ccn2S(=O)(=O)c2cccc(CN3CCN(C)CC3)c2)c1 [Example 9, 5-Methoxy-1-[3-(4-methylpiperazin-1-ylmethyl)benzenesulfonyl]-1H-indole] | –
19 | – | 79.2 | – | CN1CCN(Cc2cccc(S(=O)(=O)n3ccc4cc(F)ccc43)c2)CC1 [Example 10, 5-Fluoro-1-[3-(4-methylpiperazin-1-ylmethyl)benzenesulfonyl]-1H-indole] | –

Row | melting point [°C] | inhibition at 0.1 µM (Human 5-HT6 receptor; 100 nM test compound) [%] | Ki (Human 5-HT6 receptor) [nM] | Structure (SMILES) | % Inhibition of specific binding at 100 nM (Human 5-HT6 receptor; 100 nM test compound) [%]
20 | – | 63.7 | – | CCOc1ccc2c(ccn2S(=O)(=O)c2cccc(CN3CCN(C)CC3)c2)c1 [Example 11, 5-Ethoxy-1-[3-(4-methylpiperazin-1-ylmethyl)benzenesulfonyl]-1H-indole] | –
21 | 210.6 to 213.9 | 83.3 | – | CN1CCN(Cc2cc(S(=O)(=O)n3ccc4ccccc43)ccc2Cl)CC1.Cl.Cl [Example 13, 1-[4-Chloro-3-(4-methylpiperazin-1-ylmethyl)benzenesulfonyl]-1H-indole dihydrochloride] | –
22 | 220.2 to 221.3 | 73 | – | CN1CCN(Cc2cc(S(=O)(=O)n3ccc4cc(F)ccc43)ccc2Cl)CC1.Cl.Cl [Example 14, 1-[4-Chloro-3-(4-methylpiperazin-1-ylmethyl)benzenesulfonyl]-5-fluoro-1H-indole dihydrochloride] | –
23 | 196 to 197.1 | – | 18.4 | CCN1CCN(Cc2cc(S(=O)(=O)n3ccc4ccccc43)ccc2Cl)CC1.Cl.Cl [Example 15, 1-[4-Chloro-3-(4-ethylpiperazin-1-ylmethyl)benzenesulfonyl]-1H-indole dihydrochloride] | –
24 | 208.8 to 210.2 | 42 | – | COc1ccc2c(ccn2S(=O)(=O)c2ccc(Cl)c(CN3CCN(C)CC3)c2)c1.Cl.Cl [Example 16, 1-[4-Chloro-3-(4-methylpiperazin-1-ylmethyl)benzenesulfonyl]-5-methoxy-1H-indole dihydrochloride] | –
25 | 209.5 to 211 | 55.7 | – | CCN1CCN(Cc2cc(S(=O)(=O)n3ccc4cc(OC)ccc43)ccc2Cl)CC1.Cl.Cl [Example 18, 1-[4-Chloro-3-(4-ethylpiperazin-1-ylmethyl)benzenesulfonyl]-5-methoxy-1H-indole dihydrochloride] | –
26 | 205.9 to 207.2 | 82 | – | CCN1CCN(Cc2cc(S(=O)(=O)n3ccc4c(Cl)cccc43)ccc2Cl)CC1.Cl.Cl [Example 19, 1-[4-Chloro-3-(4-ethylpiperazin-1-ylmethyl)benzenesulfonyl]-4-chloro-1H-indole dihydrochloride] | –
27 | 242.7 to 244.3 | 85.2 | – | CN1CCN(Cc2cc(S(=O)(=O)n3ccc4c(Cl)cccc43)ccc2Cl)CC1.Cl.Cl [Example 20, 1-[4-Chloro-3-(4-methylpiperazin-1-ylmethyl)benzenesulfonyl]-4-chloro-1H-indole dihydrochloride] | –
28 | 214.1 to 216 | 88.8 | – | CN1CCN(Cc2cc(S(=O)(=O)n3ccc4ccccc43)ccc2Br)CC1.Cl.Cl [Example 21, 1-[4-Bromo-3-(4-methylpiperazin-1-ylmethyl)benzenesulfonyl]-1H-indole dihydrochloride] | –
29 | 198.1 to 199.3 | 62.2 | – | COc1ccc2c(ccn2S(=O)(=O)c2ccc(C)c(CN3CCN(C)CC3)c2)c1.Cl.Cl [Example 24, 1-[4-methyl-3-(4-methylpiperazin-1-ylmethyl)benzenesulfonyl]-5-methoxy-1H-indole dihydrochloride] | –
30 | 204.1 to 205.5 | 64.8 | – | CCN1CCN(Cc2cc(S(=O)(=O)n3ccc4cc(F)ccc43)ccc2Cl)CC1.Cl.Cl [Example 25, 1-[4-Chloro-3-(4-ethylpiperazin-1-ylmethyl)benzenesulfonyl]-5-fluoro-1H-indole dihydrochloride] | –
31 | 208.6 to 212.8 | 71.8 | – | CCN1CCN(Cc2cc(S(=O)(=O)n3ccc4cc(Br)ccc43)ccc2Cl)CC1.Cl.Cl [Example 29, 1-[4-Chloro-3-(4-ethylpiperazin-1-ylmethyl)benzenesulfonyl]-5-bromo-1H-indole dihydrochloride] | –
32 | 217.5 to 220.8 | 68 | – | CCN1CCN(Cc2cc(S(=O)(=O)n3cc(C)c4cc(OC)ccc43)ccc2Cl)CC1.Cl.Cl [Example 30, 1-[4-Chloro-3-(4-ethylpiperazin-1-ylmethyl)benzenesulfonyl]-5-methoxy-3-methyl-1H-indole dihydrochloride] | –
33 | 205.1 to 207.1 | 55.9 | – | CCN1CCN(Cc2cc(S(=O)(=O)n3ccc4cc(Br)ccc43)ccc2Br)CC1.Cl.Cl [Example 37, 1-[4-Bromo-3-(4-ethylpiperazin-1-ylmethyl)benzenesulfonyl]-5-bromo-1H-indole dihydrochloride] | –
34 | 210.5 to 213 | – | 9.11 | Cc1cn(S(=O)(=O)c2ccc(Br)c(CN3CCN(C)CC3)c2)c2ccccc12.Cl.Cl [Example 38, 1-[4-Bromo-3-(4-methylpiperazin-1-ylmethyl)benzenesulfonyl]-3-methyl-1H-indole dihydrochloride] | –
35 | 204.1 to 206.5 | 91.5 | – | CCN1CCN(Cc2cc(S(=O)(=O)n3cc(C)c4ccccc43)ccc2Br)CC1.Cl.Cl [Example 39, 1-[4-Bromo-3-(4-ethylpiperazin-1-ylmethyl)benzenesulfonyl]-3-methyl-1H-indole dihydrochloride] | –
36 | 220.3 to 223.4 | 86.2 | – | Cc1ccc(S(=O)(=O)n2ccc3cc(F)ccc32)cc1CN1CCN(C)CC1.Cl.Cl [Example 43, 1-[4-Methyl-3-(4-methylpiperazin-1-ylmethyl)benzenesulfonyl]-5-fluoro-1H-indole dihydrochloride] | –
37 | – | 98.5 | – | CCN1CCCN(Cc2cc(S(=O)(=O)n3cc(C)c4ccccc43)ccc2Cl)CC1 [Example 45, 1-[4-Chloro-3-(4-ethyl-[1,4]diazepan-1-ylmethyl)benzenesulfonyl]-3-methyl-1H-indole dihydrochloride] | –
38 | – | 92.2 | – | Cc1cn(S(=O)(=O)c2ccc(Cl)c(CN3CCCN(C)CC3)c2)c2ccccc12 [Example 46, 1-[4-Chloro-3-(4-methyl[1,4]diazepan-1-ylmethyl)benzenesulfonyl]-3-methyl-1H-indole dihydrochloride] | –
